Experiment: Surface tension at a suspended drop (Drop Shape Analyser DSA 25)
Type: physicochemical
Conditions: 23.5-25.0° C., ten measurements
Protocol: The surface tension was determined at a suspended drop using a “Drop Shape Analyser DSA 25” of the Krüss corporation. The measurements were performed at temperatures between 23.5 and 25.0° C. and at a relative humidity of approximately 15-30%. The sample was measured a total of ten times. The standard deviation is marked by s in Table 4 shown below.

In the case of `C=Cn1cc[n+](CCC(F)(F)C(F)(F)C(F)(F)C(F)(F)C(F)(F)C(F)(F)F)c1.[Cl-]` [3-(1H,1H,2H,2H-perfluorooctyl)-1-vinyl-1H-imidazoliumchloride], the “OFS (surface tension)” value (c 0.5 w/w % in water) is reported as 21.94 mN/m and the “OFS (surface tension)” value (c 1 w/w % in water) is reported as 20.58 mN/m.
